The source of these data is patent publication US10683327B2, “Compounds, linker-drugs and ligand-drug conjugates” (priority 2015, dated 2020).

Where two headings read alike, the source gives them in different places. Numbered stars: 1 amine (or outer) side, 2 acyl side, 3 side chain; on linkers, the order of the positions; unused ones are H or OH. Square brackets hold non-standard residues; d marks the D form. Peptide text beside a SMILES is read from it. * marks the point of attachment. ξ: configuration not given here. X1 = CC[C@H](C)[C@H]([C@@H](CC(=O)[*:2])OC)N(C)[*:1]; Phe(4-NO2) = N[C@@H](Cc1ccc([N+](=O)[O-])cc1)C(=O)O; Dolaproine = CO[C@@H]([C@@H]1CCCN1)[C@@H](C)C(=O)O; ξDil = CC[C@H](C)C([C@@H](CC(=O)[*:2])OC)N(C)[*:1]; Dil = CC[C@H](C)[C@H](NC)[C@@H](CC(=O)O)OC; Phe(4-NH2) = Nc1ccc(C[C@H](N)C(=O)O)cc1; NMe2Val = CC(C)[C@@H](C(=O)*)N(C)C; X2 = C[C@@H](N*)[C@@H](O)c1ccccc1; NMeV = CN[C@H](C(=O)O)C(C)C; ξF = NC(Cc1ccccc1)C(=O)O; ξV = CC(C)C(N)C(=O)O

In the assay the test system is FaDu cells. Briefly: Potency of AF derivatives: FaDu cell viability by the MTT method. It counts as cell-based. Particulars: for IC50: exposure to toxins for 120 hours, MTT; for potency in FaDu cells compared with MMAE and auristatin F (AF): statement in words on Table 2. On the procedure:
FaDu cells were seeded in Corning CellBIND 96-well plates at densities of 2500 cells/well. […] Then, the cells were rinsed once and assayed for cell viability with the MTT method. The old medium was aspirated and 100 uL of 0.5 mg/mL MTT containing medium was added into each well. After incubation for 4 hours, the MTT reagent was removed and the precipitate was dissolved in DMSO. The photometry intensity of the cells was measured by the microplate reader (Multiskan Ascent, Thermo Labsystems) of absorbance wavelength at 570 nm. Cell viability was calculated by the following equation. Cell Viability (%)=(Ins−Inb)/(Inc−Inb)×100%
In this equation, “Ins” is the photometry intensity of the cells incubated with a given toxin, “Inb” is the intensity of a blank well without cell seeding, and “Inc” is the intensity of the cells incubated with the culture medium only (positive control).
In general terms: Tetrazolium dyes change colour on reduction, which living cells bring about.

Consider `CC[C@H](C)C([C@@H](CC(=O)N1CCC[C@H]1[C@H](OC)[C@@H](C)C(=O)NC(Cc1ccccc1)C(=O)NCCc1ccc(N)cc1)OC)N(C)C(=O)C(NC(=O)[C@H](C(C)C)N(C)C)C(C)C` (some centres unmarked) [APEA-AF], for which the “potency in FaDu cells compared with MMAE and auristatin F (AF)” value is recorded as “comparable to the well-known toxin MMAE”. Further, the IC50 – broadly, the concentration that gives 50% inhibition – (Homo sapiens, FaDu, 120 h, n=6) was determined as 700 pM.

In turn, `CC[C@H](C)C([C@@H](CC(=O)N1CCC[C@H]1[C@H](OC)[C@@H](C)C(=O)NC(Cc1ccc(N)cc1)C(=O)Nc1cnc2ccccc2c1)OC)N(C)C(=O)C(NC(=O)[C@H](C(C)C)N(C)C)C(C)C` (some centres unmarked) [3AQ-AAF] had an IC50 (n=6) of 490 pM.

For the compound `CC[C@H](C)[C@H]([C@@H](CC(=O)N1CCC[C@H]1[C@H](OC)[C@@H](C)C(=O)NC(Cc1ccccc1)C(=O)N[C@@H](Cc1ccc(N)cc1)C(=O)OC)OC)N(C)C(=O)[C@@H](NC(=O)[C@H](C(C)C)N(C)C)C(C)C` (some centres unmarked) [APEA(COOMe)-AF] (NMe2Val-V[X1][Dolaproine][ξF][Phe(4-NH2)]-OMe), the “potency in FaDu cells compared with MMAE and auristatin F (AF)” value is “comparable to the well-known toxin MMAE”. For the same compound, for the setting “Homo sapiens, FaDu, 120 h, n=6”, inhibition was half-maximal at 930 pM (IC50).

`CC[C@H](C)[C@H]([C@@H](CC(=O)N1CCC[C@H]1[C@H](OC)[C@@H](C)C(=O)NC(Cc1ccccc1)C(=O)N[C@@H](Cc1ccc(N)cc1)C(=O)O)OC)N(C)C(=O)[C@@H](NC(=O)[C@H](C(C)C)N(C)C)C(C)C` (some centres unmarked) [APEA(COOH)-AF] (NMe2Val-V[X1][Dolaproine][ξF][Phe(4-NH2)]-OH): the “potency in FaDu cells compared with MMAE and auristatin F (AF)” value is “least potency”. The IC50 (Homo sapiens, FaDu, 120 h, n=6) is more than 100000 pM.

The compound `CC[C@H](C)C([C@@H](CC(=O)N1CCC[C@H]1[C@H](OC)[C@@H](C)C(=O)NC(Cc1ccc(N)cc1)C(=O)NCCc1ccccc1)OC)N(C)C(=O)C(NC(=O)[C@H](C(C)C)N(C)C)C(C)C` (some centres unmarked) [PEA-AAF] gave an IC50 (n=6) of 390 pM.

On to `CC[C@H](C)[C@@H]([C@@H](CC(=O)N1CCC[C@H]1[C@H](OC)[C@@H](C)C(=O)N[C@@H](Cc1ccccc1)C(=O)O)OC)N(C)C(=O)[C@@H](NC(=O)[C@H](C(C)C)N(C)C)C(C)C` [AF, auristatin F, reference compound] (NMe2Val-V[Dil][Dolaproine]F-OH), for which the IC50 (n=6, read-out: IC50) amounted to 15200 pM.

On to `CC[C@H](C)C([C@@H](CC(=O)N1CCC[C@H]1[C@H](OC)[C@@H](C)C(=O)NC(Cc1ccccc1)C(=O)N[C@@H](Cc1ccc([N+](=O)[O-])cc1)C(=O)OC)OC)N(C)C(=O)C(NC(=O)[C@H](C(C)C)N(C)C)C(C)C` (some centres unmarked) [NPEA(COOMe)-AF] (NMe2Val-[ξV][ξDil][Dolaproine][ξF][Phe(4-NO2)]-OMe), for which the “potency in FaDu cells compared with MMAE and auristatin F (AF)” value is “comparable to the well-known toxin MMAE”. Besides, under “Homo sapiens, FaDu, 120 h, n=6”, half-maximal inhibition (IC50) required 440 pM.

`CC[C@H](C)C([C@@H](CC(=O)N1CCC[C@H]1[C@H](OC)[C@@H](C)C(=O)NC(Cc1ccc(N)cc1)C(=O)Nc1cnc2ccccc2c1)OC)N(C)C(=O)C(NC(=O)[C@H](C(C)C)N(C)C)C(C)C` (some centres unmarked) [3AQ-ANF]: the “potency in FaDu cells compared with MMAE and auristatin F (AF)” value is “comparable to the well-known toxin MMAE”. For the setting “Homo sapiens, FaDu, 120 h, n=6”, this compound yielded an IC50 of 350 pM.

`CC[C@H](C)[C@@H]([C@@H](CC(=O)N1CCC[C@H]1[C@H](OC)[C@@H](C)C(=O)N[C@H](C)[C@@H](O)c1ccccc1)OC)N(C)C(=O)[C@@H](NC(=O)[C@@H](NC)C(C)C)C(C)C` [MMAE, reference compound] (H-[NMeV]V[Dil][Dolaproine]-X2): the IC50 (n=6, read-out: IC50) was determined as 380 pM.

Compound `CC[C@H](C)C([C@@H](CC(=O)N1CCC[C@H]1[C@H](OC)[C@@H](C)C(=O)NC(Cc1ccccc1)C(=O)N[C@@H](Cc1ccc([N+](=O)[O-])cc1)C(=O)O)OC)N(C)C(=O)C(NC(=O)[C@H](C(C)C)N(C)C)C(C)C` (some centres unmarked) [NPEA(COOH)-AF] (NMe2Val-[ξV][ξDil][Dolaproine][ξF][Phe(4-NO2)]-OH) came in with an IC50 (Homo sapiens, FaDu, 120 h, n=6) of 23200 pM.

On to `CC[C@H](C)C([C@@H](CC(=O)N1CCC[C@H]1[C@H](OC)[C@@H](C)C(=O)NC(Cc1ccc(N)cc1)C(=O)NCCc1ccccc1)OC)N(C)C(=O)C(NC(=O)[C@H](C(C)C)N(C)C)C(C)C` (some centres unmarked) [PEA-ANF], for which the “potency in FaDu cells compared with MMAE and auristatin F (AF)” value was “comparable to the well-known toxin MMAE”. For the setting “n=6”, this compound yielded an IC50 of 1260 pM.
